By EC50 is commonly meant the concentration that produces a half-maximal response.

33 molecules from US20260001889A1, “COMPOSITIONS USEFUL FOR MODULATING SPLICING” (Skyhawk Therapeutics, Inc., priority 2022, published 2026) can be followed below.

The assay has as its system ATXN3-HiBiT protein. Briefly: ATXN3 Total Protein Assay (Kelly-ATXN3-HiBiT luminescence). The format is cell-based. As to conditions: Kelly-ATXN3-HiBiT cells, 48 h after addition of compound. The source says:
Example 36: ATXN3 Total Protein Assay
To monitor ATXN3 protein levels by luminescence, a Kelly-ATXN3-HiBiT cell line with homozygous knock-in of HiBiT at the C-terminus of the endogenous ATXN3 gene was used (knock-in of the HiBiT-tag coding sequence SEQ ID NO. 14: 5′[…]3′ into exon 11 of ATXN3-position 1114 of ATXN3 RefSeq NM_004993.6). Manipulations of the Kelly-ATXN3-HiBiT cell line that result in downregulation of the ATXN3-HiBiT protein (through modulation of ATXN3-HiBiT pre-mRNA splicing) can be followed by monitoring the luminescence signal of the HiBiT tag using the Nano Glo HiBiT Lytic Detection System (Promega, #N3050). Kelly-ATXN3-HiBiT cells were maintained in RPMI 1640 w/Glutamax (Gibco, #61870010), 10% FBS (Sigma Aldrich, #F8687), 1% Penicillin/Streptomycin (Gibco, #15140-122) at 37° C., 5% CO2. To assess HiBiT-luminescence signal upon compound treatment, 2000 Kelly-ATXN3-HiBiT cells were seeded per well in 384 plate format. Compounds were added 24 h after seeding. ATXN3-HiBiT-luminescence signal was read out 48 h after addition of the compound using the Nano Glo HiBiT Lytic Detection System (Promega, #N3050) according to the manufacturer's instructions. To control for cell viability, an identically prepared sister plate was read out with the CellTiter-Glo® 2.0 Assay (Promega, #G9243) according to the manufacturer's instructions. Fold changes of ATXN3-HiBiT-luminescence and of CellTiter-Glo viability signals were calculated relative to a DMSO control condition.
With `[2H]C([2H])(Nc1cc(Cl)nc2c(Br)c(C[C@@H](N)COC(F)(F)F)oc12)c1cccs1` [Compound 246, 2-[(R)-2-amino-3-trifluoromethoxypropyl]-3-bromo-5-chloro-7-{[(2-thienyl)(^2H2)methyl]amino}-1-oxa-4-azaindene], the EC50 lay within 101 to 500 nM. `COc1cc(CNc2cc(Cl)nc3c(Br)c(C[C@H](C)N)oc23)ccc1F` [Compound 343, 2-[(S)-2-aminopropyl]-3-bromo-5-chloro-7-{[(4-fluoro-3-methoxyphenyl)methyl]amino}-1-oxa-4-azaindene] yielded an EC50 of 501 to 5000 nM.

As for `[2H]C([2H])([2H])OC([2H])([2H])[C@H](N)Cc1oc2c(NCc3cccs3)cc(Cl)nc2c1Br` [Compound 297, 2-[(R)-2-amino-3-(^2H3)methoxy(3,3- ^2H2)propyl]-3-bromo-5-chloro-7-thenylamino-1-oxa-4-azaindene], the EC50 is 0.01 to 100 nM.

On to `COc1cccc(CNc2cc(Cl)nc3c(Br)c(C[C@H](C)N)oc23)n1` [Compound 348, 2-[(S)-2-aminopropyl]-3-bromo-5-chloro-7-{[(6-methoxy-2-pyridyl)methyl]amino}-1-oxa-4-azaindene], for which the concentration giving a half-maximal response (EC50) is 10000 to 40000 nM.

`[2H]C([2H])(OC(F)F)[C@H](N)Cc1oc2c(NCc3cccs3)cc(Cl)nc2c1C#C` [Compound 302, 2-[(R)-2-amino-3-difluoromethoxy(3,3- ^2H2)propyl]-5-chloro-3-ethynyl-7-thenylamino-1-oxa-4-azaindene] displayed an EC50 of 0.01 to 100 nM. `C#Cc1c(C[C@@H](N)CO)oc2c(NCc3cccs3)cc(Cl)nc12` [Compound 248, (R)-2-amino-3-(5-chloro-3-ethynyl-7-thenylamino-1-oxa-4-aza-2-indenyl)-1-propanol] yielded an EC50 of 0.01 to 100 nM. The value for `[2H]C([2H])(c1oc2c(NCc3cccs3)cc(Cl)nc2c1C#C)[C@H](C)N` [Compound 327, 2-[(S)-2-amino(1,1-^2H2)propyl]-5-chloro-3-ethynyl-7-thenylamino-1-oxa-4-azaindene] was 0.01 to 100 nM; that for `N[C@@H](CO)C(F)(F)c1oc2c(NCc3nccs3)cc(Cl)nc2c1Br` [Compound 224, (S)-2-amino-3-(3-bromo-5-chloro-7-{[(1,3-thiazol-2-yl)methyl]amino}-1-oxa-4-aza-2-indenyl)-3,3-difluoro-1-propanol] was 501 to 5000 nM. As for `[2H]C([2H])(c1oc2c(NCc3cccs3)cc(Cl)nc2c1Cl)[C@@H](N)CF` [Compound 336, 2-[(R)-2-amino-3-fluoro(1,1-^2H2)propyl]-3,5-dichloro-7-thenylamino-1-oxa-4-azaindene], the EC50 is 0.01 to 100 nM. With `[2H][C@@](C)(N)Cc1oc2c(NCc3cccs3)cc(Cl)nc2c1Br` [Compound 229, 2-[(S)-2-amino(2-2H)propyl]-3-bromo-5-chloro-7-thenylamino-1-oxa-4-azaindene] the figure was 0.01 to 100 nM; with `[2H]C([2H])([2H])[C@@H](N)Cc1oc2c(NCc3cccs3)cc(Cl)nc2c1C#C` [Compound 271, 2-[(R)-2-amino(3,3,3-^2H3)propyl]-5-chloro-3-ethynyl-7-thenylamino-1-oxa-4-azaindene], 101 to 500 nM; with `[2H]C([2H])([2H])OCC[C@H](N)Cc1oc2c(NCc3cccs3)cc(Cl)nc2c1C#C` [Compound 320, 2-[(S)-2-amino-4-(^2H3)methoxybutyl]-5-chloro-3-ethynyl-7-thenylamino-1-oxa-4-azaindene], 0.01 to 100 nM.

The molecule `C[C@H](N)Cc1oc2c(NCc3ccc(F)c(F)c3F)cc(Cl)nc2c1Br` [Compound 351, 2-[(S)-2-aminopropyl]-3-bromo-5-chloro-7-{[(2,3,4-trifluorophenyl)methyl]amino}-1-oxa-4-azaindene] returned a half-maximal effective concentration (EC50) of 10000 to 40000 nM.

In turn, `[2H]C([2H])(c1oc2c(NCc3cccs3)cc(Cl)nc2c1C#C)[C@@H](N)CF` [Compound 335, 2-[(R)-2-amino-3-fluoro(1,1-^2H2)propyl]-5-chloro-3-ethynyl-7-thenylamino-1-oxa-4-azaindene] gave a concentration for a half-maximal effect (EC50) of 0.01 to 100 nM. `[2H]C([2H])([2H])OC[C@H](N)Cc1oc2c(NC([2H])([2H])c3cccs3)cc(Cl)nc2c1C#C` [Compound 250, 2-[(R)-2-amino-3-(^2H3)methoxypropyl]-5-chloro-3-ethynyl-7-{[(2-thienyl)(^2H2)methyl]amino}-1-oxa-4-azaindene] had a half-maximal effective concentration (EC50) of 0.01 to 100 nM. For the molecule `C[C@H](N)Cc1oc2c(NCc3ccc(F)cn3)cc(Cl)nc2c1Br` [Compound 341, 2-[(S)-2-aminopropyl]-3-bromo-5-chloro-7-{[(5-fluoro-2-pyridyl)methyl]amino}-1-oxa-4-azaindene], the EC50 lay within 5000 to 10000 nM.

With `C[C@H](N)Cc1oc2c(NCc3ccc(C#N)cc3)cc(Cl)nc2c1Br` [Compound 339, p-({2-[(S)-2-aminopropyl]-3-bromo-5-chloro-1-oxa-4-aza-7-indenylamino}methyl)benzonitrile], the half-maximal effective concentration (EC50) lay in the range of 10000 to 40000 nM. The molecule `N#CC[C@H](N)Cc1oc2c(NCc3cccs3)cc(Cl)nc2c1Br` [Compound 155, (S)-3-amino-4-(3-bromo-5-chloro-7-thenylamino-1-oxa-4-aza-2-indenyl)butyronitrile] gave a 50% effective concentration (EC50) of 501 to 5000 nM. Regarding `O=C(O)c1oc2c(NCc3cccs3)cc(Cl)nc2c1Br` [Compound 347, 3-bromo-5-chloro-7-thenylamino-1-oxa-4-aza-2-indenecarboxylic acid], the half-maximal effective concentration (EC50) fell in the range of 10000 to 40000 nM. `C[C@H](N)C(F)(F)c1oc2c(NCc3nccs3)cc(Cl)nc2c1Br` [Compound 223, 2-[(S)-2-amino-1,1-difluoropropyl]-3-bromo-5-chloro-7-{[(1,3-thiazol-2-yl)methyl]amino}-1-oxa-4-azaindene]: the EC50 lay within 101 to 500 nM. Turning to `[2H]C([2H])([2H])OC[C@]([2H])(N)Cc1oc2c(NCc3cccs3)cc(Cl)nc2c1Br` [Compound 284, 2-[(R)-2-amino-3-(^2H3)methoxy(2-2H)propyl]-3-bromo-5-chloro-7-thenylamino-1-oxa-4-azaindene], the 50% effective concentration (EC50) was in the range of 0.01 to 100 nM. The value for `[2H]C([2H])(Nc1cc(Cl)nc2c(Br)c(C[C@]([2H])(C)N)oc12)c1cccs1` [Compound 234, 2-[(S)-2-amino(2-2H)propyl]-3-bromo-5-chloro-7-{[(2-thienyl)(^2H2)methyl]amino}-1-oxa-4-azaindene] was 0.01 to 100 nM. Molecule `[2H]C([2H])(c1oc2c(NCc3cccs3)cc(Cl)nc2c1Cl)[C@H](C)N` [Compound 293, 2-[(S)-2-amino(1,1-^2H2)propyl]-3,5-dichloro-7-thenylamino-1-oxa-4-azaindene] showed an EC50 of 0.01 to 100 nM. As to `COCC[C@H](N)Cc1oc2c(NCc3cccs3)cc(Cl)nc2c1Cl` [Compound 274, 2-[(S)-2-amino-4-methoxybutyl]-3,5-dichloro-7-thenylamino-1-oxa-4-azaindene], the EC50 lay within 101 to 500 nM. The value for `C#Cc1c(C[C@@H](N)CCOC)oc2c(NCc3cccs3)cc(Cl)nc12` [Compound 266, 2-[(S)-2-amino-4-methoxybutyl]-5-chloro-3-ethynyl-7-thenylamino-1-oxa-4-azaindene] was 0.01 to 100 nM; that for `CC(=O)NC[C@H](N)Cc1oc2c(NCc3cccs3)cc(Cl)nc2c1Br` [Compound 219] was 0.01 to 100 nM.

Turning to `C[C@H](N)Cc1oc2c(NCc3ccccc3OC(F)(F)F)cc(Cl)nc2c1Br` [Compound 349, 2-[(S)-2-aminopropyl]-3-bromo-5-chloro-7-{[(o-trifluoromethoxyphenyl)methyl]amino}-1-oxa-4-azaindene], the concentration for a half-maximal effect (EC50) lay within 10000 to 40000 nM. The value for `Cc1c(CC(N)CC2COC2)oc2c(NCc3cccs3)cc(Cl)nc12` (stereo not drawn) [Compound 70, 2-[2-amino-3-(3-oxetanyl)propyl]-5-chloro-3-methyl-7-thenylamino-1-oxa-4-azaindene] was 10000 to 40000 nM; that for `Clc1cc(NCc2cccs2)c2occ(Br)c2n1` [Compound 279, (thenyl)(3-bromo-5-chloro-1-oxa-4-aza-7-indenyl)amine] was 101 to 500 nM; that for `Cc1c(C[C@@H](N)CC2(F)CC2)oc2c(NCc3cccs3)cc(Cl)nc12` [Compound 68, 2-[(R)-2-amino-3-(1-fluorocyclopropyl)propyl]-5-chloro-3-methyl-7-thenylamino-1-oxa-4-azaindene] was 501 to 5000 nM. The value for `[2H]C([2H])([2H])OC[C@H](N)Cc1oc2c(NCc3cccs3)cc(Cl)nc2c1C#C` [Compound 233, 2-[(R)-2-amino-3-(2H3)methoxypropyl]-5-chloro-3-ethynyl-7-thenylamino-1-oxa-4-azaindene] was 0.01 to 100 nM; that for `N[C@@H](Cc1oc2c(NCc3cccs3)cc(Cl)nc2c1Br)CC1(F)CC1` [Compound 86, 2-[(S)-2-amino-3-(1-fluorocyclopropyl)propyl]-3-bromo-5-chloro-7-thenylamino-1-oxa-4-azaindene] was 501 to 5000 nM. The value for `N[C@H](Cc1oc2c(NCc3cccs3)cc(Cl)nc2c1Br)C[C@@H]1CC1(F)F` [Compound 183, 2-{(S)-3-[(R)-2,2-difluorocyclopropyl]-2-aminopropyl}-3-bromo-5-chloro-7-thenylamino-1-oxa-4-azaindene] was 101 to 500 nM.
